# According to PubChem BioAssay AID1794826:
# Molecular target: Sodium/myo-inositol cotransporter 2 (Homo sapiens) (UniProt Q8WWX8)
# Assay: sodium/myo-inositol cotransporter SLC5A11 activation – cell-based, membrane potential dye, HEK-293, SLC5A11 overexpression, dose response (AID 1794826)
# Conditions: HEK-293 SLC5A11 OE, FLIPR membrane potential dye
# Sequence of Sodium/myo-inositol cotransporter 2 (Homo sapiens) (Q8WWX8 whole entry, looked up): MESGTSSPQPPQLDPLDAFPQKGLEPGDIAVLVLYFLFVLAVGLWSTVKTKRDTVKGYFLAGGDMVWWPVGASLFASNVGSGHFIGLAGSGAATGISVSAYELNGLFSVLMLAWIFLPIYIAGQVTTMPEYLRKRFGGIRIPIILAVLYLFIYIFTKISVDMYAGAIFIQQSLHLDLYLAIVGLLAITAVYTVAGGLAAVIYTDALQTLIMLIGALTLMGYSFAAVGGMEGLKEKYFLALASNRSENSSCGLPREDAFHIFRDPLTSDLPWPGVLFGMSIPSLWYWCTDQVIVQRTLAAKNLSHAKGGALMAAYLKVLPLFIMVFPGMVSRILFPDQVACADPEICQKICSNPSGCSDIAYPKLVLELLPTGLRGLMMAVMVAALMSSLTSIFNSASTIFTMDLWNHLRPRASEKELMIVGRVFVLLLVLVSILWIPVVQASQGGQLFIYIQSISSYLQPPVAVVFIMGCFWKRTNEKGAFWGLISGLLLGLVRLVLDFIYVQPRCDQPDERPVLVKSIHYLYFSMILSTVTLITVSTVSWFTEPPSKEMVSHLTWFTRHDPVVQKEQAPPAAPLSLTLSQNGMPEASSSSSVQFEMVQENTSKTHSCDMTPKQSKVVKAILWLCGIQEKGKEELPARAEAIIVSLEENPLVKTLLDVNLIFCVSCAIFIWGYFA
smiles,measurement,value
OC1C(O)C(O)C(O)C(O)C1O (stereo unspecified),EC50,104 µM
